Experimental data taken from PubChem BioAssay (NCI).
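Cultured in 96-well plates, cells were exposed to test compound for 48 hours across five concentrations. GI50: concentration for 50% inhibition of growth. TGI: total growth inhibition.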

Legend:
Experiment in all cases: NCI anticancer screen, dose series, 48 h
[1] = test system: 786-0 renal
[2] = test system: A498 renal
[3] = test system: A549 NSCLC
[4] = test system: ACHN renal
[5] = test system: BT-549 breast
[6] = test system: CAKI-1 renal
[7] = test system: CCRF-CEM leukemia
[8] = test system: COLO 205 colon
[9] = test system: DU-145 prostate
[10] = test system: EKVX NSCLC
[11] = test system: HCT-116 colon
[12] = test system: HCT-15 colon
[13] = test system: HL-60(TB) leukemia
[14] = test system: HOP-62 NSCLC
[15] = test system: HOP-92 NSCLC
[16] = test system: HS 578T breast
[17] = test system: HT29 colon
[18] = test system: IGROV1 ovarian
[19] = test system: KM12 colon
[20] = test system: LOX IMVI melanoma
[21] = test system: M14 melanoma
[22] = test system: MALME-3M melanoma
[23] = test system: MCF7 breast
[24] = test system: MDA-MB-231 breast
[25] = test system: MDA-MB-435
[26] = test system: MOLT-4 leukemia
[27] = test system: NCI-H226 lung
[28] = test system: NCI-H23 lung
[29] = test system: NCI-H460 lung
[30] = test system: NCI-H522 lung
[31] = test system: NCI/ADR-RES ovarian
[32] = test system: OVCAR-3 ovarian
[33] = test system: OVCAR-4 ovarian
[34] = test system: OVCAR-5 ovarian
[35] = test system: OVCAR-8 ovarian
[36] = test system: PC-3 prostate
[37] = test system: RPMI-8226 leukemia
[38] = test system: RXF 393 renal
[39] = test system: SF-268 CNS
[40] = test system: SF-295 CNS
[41] = test system: SF-539 CNS
[42] = test system: SK-MEL-2 melanoma
[43] = test system: SK-OV-3 ovarian
[44] = test system: SNB-19 CNS
[45] = test system: SNB-75 CNS
[46] = test system: SR leukemia
[47] = test system: SW-620 colon
[48] = test system: T-47D breast
[49] = test system: TK-10 renal
[50] = test system: U251 CNS
[51] = test system: UACC-257 melanoma
[52] = test system: UO-31 renal
[53] = test system: HCC-2998 colon
[54] = test system: K-562 leukemia
[55] = test system: SK-MEL-28 melanoma
[56] = test system: SK-MEL-5 melanoma
[57] = test system: UACC-62 melanoma

COc1ccc2c(O)c(/C=C3\N=Nc4ccccc43)oc2c1C[C@@H]1CCNC[C@H]1F
GI50 [1]: 1700 nM | TGI [1]: 3.22 µM | GI50 [2]: 11.3 µM | TGI [2]: 25.6 µM | GI50 [3]: 13.5 µM | TGI [3]: 28 µM | GI50 [4]: 1740 nM | TGI [4]: 3.41 µM | GI50 [5]: 12.8 µM | TGI [5]: 26.1 µM | GI50 [6]: 12.3 µM | TGI [6]: 25 µM | GI50 [7]: 2330 nM | TGI [7]: 6.1 µM | GI50 [8]: 1880 nM | TGI [8]: 5.05 µM | GI50 [9]: 11.2 µM | TGI [9]: 23.7 µM | GI50 [10]: 12.2 µM | TGI [10]: 25.5 µM | GI50 [11]: 1650 nM | TGI [11]: 3.17 µM | GI50 [12]: 14.2 µM | TGI [12]: 28.9 µM | GI50 [13]: 16 µM | TGI [13]: 37.8 µM | GI50 [14]: 11.1 µM | TGI [14]: 24.6 µM | GI50 [15]: 13.3 µM | TGI [15]: 29.5 µM | GI50 [16]: 10.3 µM | TGI [16]: 28.7 µM | GI50 [17]: 2700 nM | TGI [17]: 11 µM | GI50 [18]: 10.9 µM | TGI [18]: 26.2 µM | GI50 [19]: 695 nM | TGI [19]: 12 µM | GI50 [20]: 1600 nM | TGI [20]: 2990 nM | GI50 [21]: 6.12 µM | TGI [21]: 21.4 µM | GI50 [22]: 3.33 µM | TGI [22]: 22.5 µM | GI50 [23]: 3.44 µM | TGI [23]: 19.5 µM | GI50 [24]: 2420 nM | TGI [24]: 7.33 µM | GI50 [25]: 11.3 µM | TGI [25]: 24.4 µM | GI50 [26]: 4.5 µM | TGI [26]: 21.1 µM | GI50 [27]: 13 µM | TGI [27]: 31.9 µM | GI50 [28]: 10.6 µM | TGI [28]: 24.6 µM | GI50 [29]: 2020 nM | TGI [29]: 4.1 µM | GI50 [30]: 1670 nM | TGI [30]: 3.94 µM | GI50 [31]: 10.5 µM | TGI [31]: 25.9 µM | GI50 [32]: 1990 nM | TGI [32]: 3.98 µM | GI50 [33]: 11.4 µM | TGI [33]: 26.6 µM | GI50 [34]: 10.5 µM | TGI [34]: 24 µM | GI50 [35]: 2280 nM | TGI [35]: 5.53 µM | GI50 [36]: 3.26 µM | TGI [36]: 15.4 µM | GI50 [37]: 7.05 µM | TGI [37]: 30.5 µM | GI50 [38]: 1660 nM | TGI [38]: 3.17 µM | GI50 [39]: 3.13 µM | TGI [39]: 14.1 µM | GI50 [40]: 3.31 µM | TGI [40]: 15.3 µM | GI50 [41]: 1600 nM | TGI [41]: 3.06 µM | GI50 [42]: 17 µM | TGI [42]: 32.5 µM | GI50 [43]: 17.2 µM | TGI [43]: 31.7 µM | GI50 [44]: 9.29 µM | TGI [44]: 28.2 µM | GI50 [45]: 8.46 µM | TGI [45]: 21.5 µM | GI50 [46]: 1500 nM | TGI [46]: 5.48 µM | GI50 [47]: 2510 nM | TGI [47]: 11.7 µM | GI50 [48]: 18.5 µM | TGI [48]: 40.8 µM | GI50 [49]: 15 µM | TGI [49]: 29.4 µM | GI50 [50]: 3.17 µM | TGI [50]: 10.6 µM | GI50 [51]: 16.2 µM | TGI [51]: 32 µM | GI50 [52]: 7.55 µM | TGI [52]: 22.1 µM

O=C(NNC1=NCCCCN1)Nc1ccc(Cl)cc1
TGI [1]: > 100 µM | TGI [2]: > 100 µM | TGI [3]: > 100 µM | TGI [4]: > 100 µM | TGI [5]: > 100 µM | TGI [6]: > 100 µM | TGI [7]: > 100 µM | TGI [8]: > 100 µM | TGI [10]: > 100 µM | TGI [53]: > 100 µM | TGI [11]: > 100 µM | TGI [12]: > 100 µM | TGI [13]: > 100 µM | TGI [14]: > 100 µM | TGI [15]: > 100 µM | TGI [16]: > 100 µM | TGI [17]: > 100 µM | TGI [18]: > 100 µM | TGI [54]: > 100 µM | TGI [19]: > 100 µM | TGI [20]: > 100000 nM | TGI [22]: > 100 µM | TGI [23]: > 100 µM | TGI [25]: > 100 µM | TGI [26]: 72.4 µM | TGI [27]: > 100 µM | TGI [28]: > 100 µM | TGI [29]: > 100 µM | TGI [30]: > 100 µM | TGI [31]: > 100 µM | TGI [32]: > 100 µM | TGI [33]: > 100 µM | TGI [34]: > 100 µM | TGI [35]: > 100 µM | TGI [36]: > 100 µM | TGI [37]: > 100 µM | TGI [38]: > 100 µM | TGI [39]: > 100 µM | TGI [40]: > 100 µM | TGI [41]: > 100 µM | TGI [42]: > 100 µM | TGI [55]: > 100 µM | TGI [56]: > 100 µM | TGI [43]: > 100 µM | TGI [44]: > 100 µM | TGI [45]: > 100 µM | TGI [46]: > 100 µM | TGI [47]: > 100 µM | TGI [48]: > 100 µM | TGI [49]: > 100 µM | TGI [50]: > 100 µM | TGI [51]: > 100 µM | TGI [57]: > 100 µM | TGI [52]: > 100 µM
